From patent US20120070377A1, “COMPOUNDS AND BIOLOGICAL MATERIALS AND USES THEREOF” (priority 2009, published 2012) come the findings set out here.

Molecules are shown by their SMILES.

One data set has as its system SKOV3 tumours. Kind of data set: PDT therapy in SKOV3 tumour mice. Type of data set: in vivo, BALB/c nude mice. Here is the method:
Female BALB/c nude mice (aged 6-8 weeks old) were implanted with 10^7 SKOV3 tumour cells mixed in 0.1 ml of ice-cold matrigel subcutaneously and the tumours were allowed to grow for 3-6 weeks as xenografts. Mice were maintained in IVC cages (individually-vented cages) in a clean room. Samples were injected in a volume of 0.1 ml, intravenously via the lateral tail vein and the mice were maintained in low light with full food and water (irradiated). At various time points (1-24 hr), mice were culled by cardiac puncture under terminal anesthesia and blood and tissues collected. All the tissues were counted for radioactivity by gamma counting and weighed.
Tumours were set up as described above and injected (iv into the mouse tail vein) with 0.2 ml of free PPa-PEG1 (0.1 mg=33 micromolar concentration) PS on day 1 and day 4. Based on the tumour uptake (see FIG. 10), an HPD laser was used to illuminate the tumours for 20 minutes at 0.5 W after 4 hrs. The mice were anaesthetized beforehand. Laser treatment followed each drug cycle. The tumours were followed for 3 weeks and the % increase in tumour size was plotted (day 0=100%) (see FIG. 12).
Tumours (groups of 6 mice) were set up as described above and injected (iv into the mouse tail vein) with 0.2 ml of C6-PPa-PEG PIC or free PPa-PEG1 PS (1 mg/ml PIC=33 micomolar concentration scFv or 330 micromolar PPa-PEG) on day 1 and day 4. […]

Data set [1] in a line: Skin photosensitivity in a murine model. The class given is in vivo. The following applies: laser on the skin after 1 hour, monitored over 4 days, scale of 1-4. Here is the method:
FIG. 24: Skin photosensitivity of Foscan compared to compound II. Photosensitisers were administered at t=0 hrs and a laser shone on the skin after 1 hour. The skin reaction was followed over time and the results were plotted according to the scale shown.
Skin photosensitivity is an important issue to be resolved in PDT. […] In a murine model, Foscan was administered at clinical doses (ref 109) and compared to compound 11 and a photo-immunoconjugate of compound 11. Skin photosensitivity was monitored over 4 days by observation according to a scale of 1-4 (FIG. 24).

For a further data set, the system named is KB. Nature of the data set: In vitro phototoxicity (MTS cell titre assay after 670 nm laser light), Example 5. Type of data set: cell-based, human. Particulars: Homo sapiens, KB; free photosensitisers; 2 hrs incubation, 670 nm laser 0.5 W 10 s, MTS after 48 h. Here is the method:
(§1) Two different human-derived tumour cell lines: SKOV3 and KB were obtained from the European Collection of Cell Cultures (ECACC) and cultured in Dulbecco's modified Eagle's medium (DMEM) with 10% foetal bovine serum, penicillin and streptomycin antibiotics (1%) and passaged when 70-90% confluent in 75 cm^2 flasks. The cells were maintained at 37° C. in a humidified 5% CO2 atmosphere.
(§2) Cells were trypsinised and seeded at 2×10^3 cells/well for KB and 3×10^3 cells/well for SKOV3 into 96-well plates and incubated over two nights for KB and overnight for SKOV3 at 37° C. and 5% CO2. The cells were then washed once in phenol red free DMEM and appropriately diluted photosensitiser solution or photo-immunoconjugate (in DMEM, 2% DMSO) was added to the appropriate wells under subdued lighting. DMEM or Triton X-100 (1%) were added to control wells. After 2 hrs incubation in the dark at 37° C., 5% CO2, cells were washed three times with PBS and 100 μl of DMEM was added to each well.
(§3) Wells were exposed to light from a High Powered-Devices 670 nm laser used at 0.5 W for 10 s. Controls included wells with photosensitiser added and no exposure to light, or DMEM added and exposure to light as well as Triton X-100 (1%) with or without light exposure. Cells that had no photosensitiser added and no exposure to light were included as overall controls. Cells were incubated in the dark at 37° C., 5% CO2 for 48 h after which time, a cell titre assay was performed according to the manufacturer's instructions. The Promega Cell Titre-96 system was used which involves the conversion by live cells of a tetrazolium compound (MTS) into a formazan dye which is measurable by its absorbance at 490 nm.
(Tetrazolium dyes change colour on reduction, which living cells bring about.)

The subject of the next data set is SKOV3. Described as above. The class given is cell-based, human. Particulars: Homo sapiens, SK-OV-3; free photosensitisers; 2 hrs incubation, 670 nm laser 0.5 W 10 s, MTS after 48 h. Here is the method:
as §1, §2, §3

With `CCC1=C(C)c2cc3[nH]c(c(C)c3CC)c(C#CCCCC(=O)ON3C(=O)CCC3=O)c3nc(c4c5[nH]c(cc1n2)c(C)c5C(=O)C4)[C@@H](CCC(=O)OCc1cc(OCCOCCOCCOC)c(OCCOCCOCCOC)c(OCCOCCOCCOC)c1)[C@@H]3C` [compound 11, Meso 5-Ethynylhexanoyl succinimido ester pyropheophorbide a-3,4,5-(triethylene glycolmonomethylether) benzyl ester], the “tumour regression compared to untreated (Saline) controls” value with SKOV3 tumours (C6 PPa-PEG therapy: 0.2 ml iv day 1 and day 4, 1 mg/ml PIC or 0.5 mg/ml free PS, laser 20 minutes 0.5 W after 4 hrs, followed 6 weeks) is recorded as “no significant tumour regression”; in the data set with SKOV3 tumours (PPa-PEG only therapy: 0.2 ml iv (0.1 mg) day 1 and day 4, laser 20 minutes 0.5 W after 4 hrs, followed 3 weeks), “no significant tumour regression”. The skin photosensitivity entry in data set [1] is listed as “little or no skin sensitivity”. Further, the values for the IC50 in the data set on KB and with SKOV3 were 1.2 ± 0.5 µM and 1.1 µM, respectively.

What is called IC50 is the point on the concentration scale where inhibition reaches its midpoint.
